Measured values: ChEMBL document CHEMBL1126997, “Synthesis and antibacterial activity of two catechol-bearing penems” (1993)

Legend:
Type in all cases: functional
Escherichia coli [1] = experiment: Compound was tested in vitro for antimicrobial activity against Escherichia coli DC0
Escherichia coli [2] = experiment: Compound was tested in vitro for antimicrobial activity against Escherichia coli DC2: cell wall deficient mutant strain
Escherichia coli [3] = experiment: Compound was tested in vitro for antimicrobial activity against Escherichia coli NCTC 10418
Pseudomonas aeruginosa [4] = experiment: Compound was tested in vitro for antimicrobial activity against Pseudomonas aeruginosa Dagleish: beta-lactamase producer
Pseudomonas aeruginosa [5] = experiment: Compound was tested in vitro for antimicrobial activity against Pseudomonas aeruginosa K799
Pseudomonas aeruginosa [6] = experiment: Compound was tested in vitro for antimicrobial activity against Pseudomonas aeruginosa NCTC 10662
Proteus mirabilis = experiment: Compound was tested in vitro for antimicrobial activity against Proteus mirabilis 977
Providencia stuartii = experiment: Compound was tested in vitro for antimicrobial activity against Providencia stuartii T90

Row | Structure (SMILES) | MIC (Escherichia coli [1]) [µg/mL] | MIC (Escherichia coli [2]) [µg/mL] | MIC (Escherichia coli [3]) [µg/mL] | MIC (Pseudomonas aeruginosa [4]) [µg/mL] | MIC (Pseudomonas aeruginosa [5]) [µg/mL] | MIC (Pseudomonas aeruginosa [6]) [µg/mL] | MIC (Proteus mirabilis) [µg/mL] | MIC (Providencia stuartii) [µg/mL]
1 | C[C@@H](O)[C@H]1C(=O)N2C(C(=O)[O-])=C(CO)S[C@H]12.[Na+] | 8 | 8 | 8 | 64 | 64 | 64 | 16 | 16
2 | CC(=O)Oc1cccc(C(=O)OCC2=C(C(=O)[O-])N3C(=O)C[C@H]3S2)c1OC(C)=O.[Na+] | > 32 | 0.5 | 8 | > 32 | > 32 | 8 | 16 | > 32
3 | O=C([O-])C1=C(CO)S[C@@H]2CC(=O)N12.[Na+] | 32 | 32 | 16 | > 64 | > 64 | > 64 | 32 | 32
4 | C[C@@H](O)[C@H]1C(=O)N2C(C(=O)[O-])=C(COC(=O)c3ccc(O)c(O)c3)S[C@H]12.[Na+] | 1 | 0.12 | 0.5 | > 64 | > 64 | 32 | 32 | 32
